Measured values published in patent US5981551A, “2,5-diimino-3a,6a-diaryl-1,2,3,3a,4,5,6,6a-octahydroim idazo[4,5-d]imidazoles which are effective as G-CSF mimetics” (SmithKline Beecham Corporation, priority 1998, dated 1999).
Counter-ions that a name gives are not always drawn.

Biological target: T1, G-CSF receptor (Mus musculus, UniProt P40223)
T1 construct: NSF60 cells express endogenous G-CSF receptors; endogenous in cells; host or cells: NFS60 cells
T1 sequence (P40223 26-837): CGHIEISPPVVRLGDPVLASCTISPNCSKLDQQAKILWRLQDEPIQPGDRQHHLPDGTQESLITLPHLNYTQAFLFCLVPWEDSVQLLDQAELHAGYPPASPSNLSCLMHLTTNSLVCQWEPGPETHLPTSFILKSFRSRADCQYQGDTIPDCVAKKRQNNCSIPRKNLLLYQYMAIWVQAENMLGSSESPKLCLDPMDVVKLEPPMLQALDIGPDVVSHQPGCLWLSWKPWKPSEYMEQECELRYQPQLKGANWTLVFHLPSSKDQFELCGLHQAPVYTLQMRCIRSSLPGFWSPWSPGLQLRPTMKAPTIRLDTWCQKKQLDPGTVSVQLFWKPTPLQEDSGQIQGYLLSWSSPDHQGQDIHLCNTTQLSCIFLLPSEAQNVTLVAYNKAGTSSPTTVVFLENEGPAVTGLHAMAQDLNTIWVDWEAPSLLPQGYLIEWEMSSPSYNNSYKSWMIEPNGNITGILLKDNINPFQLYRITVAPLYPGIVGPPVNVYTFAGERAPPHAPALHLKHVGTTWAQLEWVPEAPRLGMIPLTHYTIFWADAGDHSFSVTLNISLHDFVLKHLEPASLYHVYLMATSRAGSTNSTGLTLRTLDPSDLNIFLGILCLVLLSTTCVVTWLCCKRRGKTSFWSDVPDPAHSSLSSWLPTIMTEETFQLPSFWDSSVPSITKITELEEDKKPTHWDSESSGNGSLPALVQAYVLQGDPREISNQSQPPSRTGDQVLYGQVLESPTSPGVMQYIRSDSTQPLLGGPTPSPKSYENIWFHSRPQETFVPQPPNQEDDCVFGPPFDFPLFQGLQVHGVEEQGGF
Experiment: Luciferase assay in NFS60 cells (G-CSF mimetic potency)
Format: cell-based
Conditions: concentration range of 1 to 32 uM
Source text: Luciferase Assay […] Natl. Acad. Sci., USA 92: 3041-3045 (1995) by substituting NFS60 cells for the HepG2 cells utilized therein. The NFS60 cells (Holmes, et al., Proc. Natl. Acad. Sci. USA 82: 6687-6691 (1985)) were substituted for the HepG2 cells in the Lamb assay because the NSF60 cells express endogenous G-CSF receptors closely matching the pattern of STAT (signal transducers and activators of transcription) activation observed in primary murine and human bone marrow cells.

| Structure (SMILES) | activation, % of control, in the luciferase assay |
| --- | --- |
| FC(F)(F)c1ccc(C23NC(=Nc4nc5ccccc5[nH]4)NC2(c2ccc(C(F)(F)F)cc2)NC(=Nc2nc4ccccc4[nH]2)N3)cc1 (stereo not drawn) [Example 34, 2,5-bis[2-benzimidazolylimino]-3a,6a-bis(4-trifluoromethylphenyl)-1,2,3,3a,4,5,6,6a-octahydroimidazo[4,5-d]imidazole] | above 150 % of control |
| Clc1ccccc1C12NC(=Nc3nc4ccccc4[nH]3)NC1(c1ccccc1)NC(=Nc1nc3ccccc3[nH]1)N2 (stereo not drawn) [Example 36, 2,5-bis[2-benzimidazolylimino]-3a-(2-chlorophenyl)-6a-phenyl-1,2,3,3a,4,5,6,6a-octahydroimidazo[4,5-d]imidazole] | ≤ 150 % of control |
| c1ccc(C23NC(=Nc4nc5ccccc5[nH]4)NC2(c2ccccc2)NC(=Nc2nc4ccccc4[nH]2)N3)cc1 (stereo not drawn) [Example 2] | above 150 % of control |
| c1coc(C23NC(=Nc4nc5ccccc5[nH]4)NC2(c2ccco2)NC(=Nc2nc4ccccc4[nH]2)N3)c1 (stereo not drawn) [Example 3, 2,5-bis[2-benzimidazolylimino]-3a,6a-bis(2-furyl)-1,2,3,3a,4,5,6,6a-bis(2-pyridyl)octahydroimidazo[4.5-d]imidazole] | ≤ 150 % of control |
| Cc1cc2nc(N=C3NC4(c5ccccn5)NC(=Nc5nc6ccccc6[nH]5)NC4(c4ccccn4)N3)[nH]c2cc1C (stereo not drawn) [Example 26, 5-[2-benzimidazolylimino]-2-[(5,6-dimethyl-2-benzimidazolyl)imino]-3a,6a-bis(2-pyridyl)-1,2,2a,4,5,6,6a-octahydroimidazo[4,5-d]imidazole bis(trifluoroacetate) salt] | above 150 % of control |
| c1ccc(C23NC(=Nc4nc5ccccc5o4)NC2(c2ccccn2)NC(=Nc2nc4ccccc4o2)N3)nc1 (stereo not drawn) [Example 14, 2,5-bis[2-benzoxazolylimino]-3a,6a-bis(2-pyridyl)-1,2,3a,4,5,6,6a-octahydroimidazo[4,5-d]imidazole] | ≤ 150 % of control |
| Cc1cc2nc(N=C3NC4(c5ccccn5)NC(=Nc5nc6cc(C)c(C)cc6[nH]5)NC4(c4ccccn4)N3)[nH]c2cc1C (stereo not drawn) [Example 25, 2,5-bis[(5.6-dimethyl-2-benzimidazolyl)imino]-3a,6a-bis(2-pyridyl)-1,2,2a,4,5,6,6a-octahydroimidazo[4,5-d]imidazole bis(trifluoroacetate) salt] | above 150 % of control |
| Cc1ccc2nc(N=C3NC4(c5ccccc5)NC(=Nc5nc6ccccc6[nH]5)NC4(c4ccccn4)N3)[nH]c2c1.O=C(O)C(F)(F)F.O=C(O)C(F)(F)F (stereo not drawn) [Example 37, 5-(2-benzimidazolylimino)-2-[(5-methyl-2-benzimidazolyl)imino]-3a-(2-pyridyl)-6a-phenyl-1,2,3,3a,4,5,6,6a-octahydroimidazo[4,5-d]imidazole bis(trifluoroacetate) salt] | above 150 % of control |
| Fc1ccc2nc(N=C3NC4(c5ccccn5)NC(=Nc5nc6ccc(F)cc6[nH]5)NC4(c4ccccn4)N3)[nH]c2c1 (stereo not drawn) [Example 20, 2,5-bis[(5-fluoro-2-benzimidazolyl)imino]-3a,6a-bis(2-pyridyl-1,2,3,3a4,5,6,6a-octahydroimidazo[4,5-d]imidazolebis(trifluoroacetate) salt] | above 150 % of control |
| c1ccc(C23NC(=Nc4nc5ccccc5[nH]4)NC2(c2ccccn2)NC(=Nc2nc4ccccc4[nH]2)N3)nc1 (stereo not drawn) [Example 1] | above 150 % of control |
| Fc1ccc2nc(N=C3NC4(c5ccccn5)NC(=Nc5nc6ccccc6[nH]5)NC4(c4ccccn4)N3)[nH]c2c1.O=C(O)C(F)(F)F.O=C(O)C(F)(F)F (stereo not drawn) [Example 19, 5-(2-benzimidazolylimino)-2-[(5-fluoro-2-benzimidazolyl)imino]-3a,6a-bis(2-pyridyl)-1,2,3,3a,4,5,6,6a-octahydroimidazo[4,5-d]imidazole bis(trifluoroacetate) salt] | ≤ 150 % of control |
| c1ccc(C23NC(=Nc4nc5ccccc5[nH]4)NC2(c2ccccn2)NC(=Nc2nc4ccccc4s2)N3)nc1 (stereo not drawn) [Example 30, 5-[2-benzimidazolylimino]-2-[2-benzothiazolylimino]-3a,6a-bis(2-pyridyl)-1,2,3a,4,5,6,6a-octahydroimidazo[4,5-d]imidazole bis(trifluoroacetate)] | above 150 % of control |
| Cn1c(N=C2NC3(c4ccc(Br)cc4)NC(=Nc4nc5ccccc5n4C)NC3(c3ccc(Br)cc3)N2)nc2ccccc21 (stereo not drawn) [Example 40, 2,5-bis[(1-methyl-2-benzimidazolyl)imino]-3a,6a-bis(4-bromophenyl)-1,2,3,3a,4,5,6,6a-octahydromidazo[4,5-d]imidazole] | ≤ 150 % of control |
| Ic1ccc2nc(N=C3NC4(c5ccccn5)NC(=Nc5nc6ccccc6[nH]5)NC4(c4ccccn4)N3)[nH]c2c1 (stereo not drawn) [Example 32b, 5-[2-benzimidazolylimino]-2-[(5-iodo-2-benzimidazolyl)imino]-3a,6a-bis(2-pyridyl)-1,2,2a,4,5,6,6a-octahydroimidazo[4,5-d]imidazole bis(trifluoroacetate) salt] | above 150 % of control |
| O=C(O)c1ccc2nc(N=C3NC4(c5ccccn5)NC(=Nc5nc6ccccc6[nH]5)NC4(c4ccccn4)N3)[nH]c2c1 (stereo not drawn) [Example 31, 5-[(2-benzimidazolylimino]1-2-[(5-carboxy-2-benzimidazolyl)imino]-3a,6a-bis(2-pyridyl)-1,2,3,3a,4,5,6,6a-octahydroimidazo[4,5-d]imidazolebis(trifluoroacetate) salt] | ≤ 150 % of control |
| Brc1ccc(C23NC(=Nc4nc5ccccc5[nH]4)NC2(c2ccc(Br)cc2)NC(=Nc2nc4ccccc4[nH]2)N3)cc1 (stereo not drawn) [Example 33, 2,5-bis[2-benzimidazolylimino]-3a,6a-bis(4-bromophenyl)-1,2,3,3a,4,5,6,6a-octahydroimidazo[4,5-d]imidazole] | ≤ 150 % of control |
| Cc1ccc(C23NC(=Nc4nc5ccccc5n4C)NC2(c2ccc(C)cc2)NC(=Nc2nc4ccccc4n2C)N3)cc1 (stereo not drawn) [Example 39, 2,5-bis[(1-methyl-2-benzimidazolyl)imino]-3a,6a-bis(4-methylphenyl)-1,2,3,3a,4,5,6,6a-octahydromidazo[4,5-d]imidazole] | above 150 % of control |
| Ic1ccc2nc(N=C3NC4(c5ccccn5)NC(=Nc5nc6ccc(I)cc6[nH]5)NC4(c4ccccn4)N3)[nH]c2c1.O=C(O)C(F)(F)F.O=C(O)C(F)(F)F (stereo not drawn) [Example 32a, 2,5-bis[(5-iodo-2-benzimidazolyl)imino]-3a,6a-bis(2-pyridyl)-1,2,3,3a,4,5,6,6a-octahydroimidazo[4,5-d]imidazole bis(trifluoroacetate) salt] | ≤ 150 % of control |
| Cc1csc(N=C2NC3(c4ccccn4)NC(=Nc4nc(C)cs4)NC3(c3ccccn3)N2)n1 (stereo not drawn) [Example 13, 2,5-bis[(4-methyl-2-thiazolyl)imino]-3a,6a-bis(2-pyridyl)-1,2,3,3a,4,5,6a-octahydroimidazo[4,5-d]imidazole] | above 150 % of control |
| Clc1cccc(C23NC(=Nc4nc5ccccc5[nH]4)NC2(c2ccccc2)NC(=Nc2nc4ccccc4[nH]2)N3)c1 (stereo not drawn) [Example 35, 2,5-bis[2-benzimidazolylimino]-3a-(3-chlorophenyl)-6a-phenyl-1,2,3,3a,4,5,6,6a-octahydroimidazo[4,5-d]imidazole] | above 150 % of control |
| Cn1c(N=C2NC3(c4ccccc4)NC(=Nc4nc5ccccc5n4C)NC3(c3ccccc3)N2)nc2ccccc21 (stereo not drawn) [Example 38, 2,5-bis[(1-methyl-2-benzimidazolyl)imino]-3a,6a-diphenyl-1,2,3,3a,4,5,6,6a-octahydromidazo[4,5-d]imidazole] | ≤ 150 % of control |
